Laboratory results published in patent publication US6096293A, “Antiplaque oral composition and method” (priority 1999, dated 2000).

Assays:
A. viscosus [1] = assay: Minimum Inhibitory Concentration (MIC), neat AA solutions in ethanol; format: cell-based; conditions: for MIC: neat solution in 98.5% ethanol
Source text: (§1) The smaller the MIC, the greater the antibacterial activity of the AA being tested. This MIC test is also described in U.S. Pat. No. 5,275,805 at column 11, lines 54-68, which description is herewith incorporated herein.

S. mutans [2] = assay: as above; format: cell-based; conditions: for MIC: neat solution in 98.5% ethanol
Source text: as §1

S. sanguis [3] = assay: as above; format: cell-based; conditions: for MIC: neat solution in 98.5% ethanol
Source text: as §1

bacteria [4] = assay: Antimicrobial activity in general (comparison with thymol / triclosan, effect of substitution); format: cell-based
S. sanguis [5] = conditions: Evans 1977; cited from earlier work
S. mutans [6] = conditions: Evans 1977; cited from earlier work
A. naeslundii = conditions: Evans 1977; cited from earlier work
A. viscosus [7] = conditions: Evans 1977; cited from earlier work
[8] = test system: A. viscosus, A. naeslundii, S. mutans and S. sanguis; conditions: Evans 1977; cited from earlier work
bacteria [9] = conditions: background statement; cited from earlier work
[10] = test system: B. typhosus and Staph. aureus; conditions: v. B. typhosus and Staph. aureus; Suter 1941; cited from earlier work

| Compound | MIC (A. viscosus [1]) [ppm] | MIC (S. mutans [2]) [ppm] | MIC (S. sanguis [3]) [ppm] | inhibition of in vitro growth or plaque formation [8] | phenol coefficient [10] | further results |
| --- | --- | --- | --- | --- | --- | --- |
| CC(C)(C)c1ccc(O)c(C(C)(C)C)c1 [2,4-di-t-butylphenol] | 1.95 | 0.98 | 1.95 | – | – | activity relative to triclosan (A. viscosus [1]; MIC test of Example 5): somewhat less active than triclosan; activity relative to triclosan (S. mutans [2]; MIC test of Example 5): significantly superior to triclosan; activity relative to triclosan (S. sanguis [3]; MIC test of Example 5): somewhat less active than triclosan; activity relative to thymol (bacteria [4]; MIC test of Example 5, A. viscosus, S. sanguis, S. mutans): many times superior to thymol |
| O=C(Nc1ccc(Br)cc1)c1cc(Br)cc(Br)c1O [3,5,4'-tribromo-salicylanilide] | – | – | – | – | – | effect on growth and plaque formation (S. sanguis [5]): effective against growth and plaque formation; effect on growth and plaque formation (S. mutans [6]): effective against growth and plaque formation; effect on growth and plaque formation (A. naeslundii): effective against growth and plaque formation; effect on growth and plaque formation (A. viscosus [7]): effective against growth and plaque formation |
| O=C(C(=O)c1cc(Br)ccc1O)c1cc(Br)ccc1O [Dibromsalicil] | – | – | – | – | – | effect on growth and plaque formation (A. viscosus [7]): effective against A. viscosus |
| Cc1ccc(C(C)C)c(O)c1 [Thymol, 2-isopropyl-5-methylphenol] | 15.60 | 31.25 | 15.60 | did not inhibit in vitro growth or plaque formation | – | antimicrobial activity relative to triclosan (background) (bacteria [9]): only a small fraction of the activity of triclosan |
| Oc1cc(Cl)ccc1Oc1ccc(Cl)cc1Cl [Triclosan] | 0.50 | 1.95 | 0.98 | – | – | activity compared to thymol (bacteria [4]; AA's of the Tables, "10 to 100 or more times"): ~100 times |
| CCC(C)c1ccccc1O (centres unmarked) [o-sec-butyl phenol] | – | – | – | – | 28 | – |
| CCC(C)c1ccc(O)cc1 (centres unmarked) [p-sec-butyl phenol] | – | – | – | – | 28 | – |
| O=S(=O)([O-])c1ccc(O)cc1.O=S(=O)([O-])c1ccc(O)cc1.[Zn+2] [zinc phenolsulfonate] | – | – | – | did not inhibit in vitro growth or plaque formation | – | – |
| phenylphenol | – | – | – | did not inhibit in vitro growth or plaque formation | – | – |
| tert.butylphenol | – | – | – | – | about 20 | – |
